Data as given in PubChem BioAssay (NCI).
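Values below derive from 48-hour exposures of cells grown in 96-well plates, with endpoints linearly interpolated between the two concentrations bracketing the appropriate inhibition level. At the GI50, growth is halved. TGI is the concentration that stops growth completely.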

How the values were obtained:
Experiment in all cases: inhibition of tumour cell growth, NCI panel, 48 h
SK-MEL-5 melanoma = system: SK-MEL-5 melanoma
786-0 renal = system: 786-0 renal
U251 CNS = system: U251 CNS
K-562 leukemia = system: K-562 leukemia
HCT-15 colon = system: HCT-15 colon
SK-MEL-28 melanoma = system: SK-MEL-28 melanoma
UACC-257 melanoma = system: UACC-257 melanoma
OVCAR-3 ovarian = system: OVCAR-3 ovarian
NCI-H522 lung = system: NCI-H522 lung
SNB-19 CNS = system: SNB-19 CNS

SMILES | TGI (SK-MEL-5 melanoma) [µM] | TGI (786-0 renal) [µM] | TGI (U251 CNS) [µM] | TGI (K-562 leukemia) [µM] | TGI (HCT-15 colon) [µM] | TGI (SK-MEL-28 melanoma) [µM] | TGI (UACC-257 melanoma) [µM] | TGI (OVCAR-3 ovarian) [µM] | TGI (NCI-H522 lung) [µM] | TGI (SNB-19 CNS) [µM] | GI50 (SK-MEL-5 melanoma) [µM] | GI50 (786-0 renal) [µM] | GI50 (U251 CNS) [µM] | GI50 (K-562 leukemia) [µM] | GI50 (HCT-15 colon) [µM] | GI50 (SK-MEL-28 melanoma) [µM] | GI50 (UACC-257 melanoma) [µM] | GI50 (OVCAR-3 ovarian) [µM] | GI50 (NCI-H522 lung) [µM] | GI50 (SNB-19 CNS) [µM]
Cc1ccc(-c2nc(SCC(=O)O)n[nH]2)cc1 | > 100 | > 100 | > 100 | > 100 | > 100 | > 100 | > 100 | > 100 | > 100 | > 100 |  |  |  |  |  |  |  |  |  | 
Cc1ccc(NC(=O)NC(=O)c2ccc([N+](=O)[O-])cc2[N+](=O)[O-])cc1Oc1ncc(Cl)cn1 | 0.819 | 13.8 | 3.83 | > 37.4 | 11.2 | 24.1 | 16.9 | 13.6 | 0.603 | 21.4 |  |  |  |  |  |  |  |  |  | 
CC(=O)Nc1ccc(Sc2ccc([N+](=O)[O-])o2)cc1 | 11.4 | 7.55 | 11 | > 30.8 | 3.18 | 3.6 | 3.52 | 1.95 | 0.711 | 23.2 | 3.32 | 2.69 | 3.06 | 2.22 | 0.806 | 1.75 | 1.61 | 0.664 | 0.214 | 10.1
O=C(OCc1ccccc1)N1CCN(/[N+]([O-])=N/Oc2ccc([N+](=O)[O-])cc2[N+](=O)[O-])CC1 | 21.1 | 6.97 | 27.1 | > 100 | 52.6 | 31.1 | 36.5 | 6.96 | > 100 | 35.8 | 6.43 | 2.45 | 4.85 | 4.07 | 4.19 | 13.2 | 19.5 | 3.01 | 3.66 | 13.6
C=C(C)[C@@H]1CC[C@]2(C)[C@H](C(=O)C=C3[C@@H]4C[C@](C)(C(=O)N5CCN(C)CC5)CC[C@]4(C)CC[C@]32C)[C@@]1(C)CCC#N | 13.9 | 13.7 | 12.7 | 9.55 | 10.9 | 13.8 | 13.9 | 13.2 | 15.3 | 14.9 | 7.3 | 7.03 | 6.05 | 2.75 | 4.2 | 7.23 | 6.39 | 6.33 | 7.21 | 7.87
CCOC(=O)C(=O)Nc1ccc(C)cc1C | > 100 | > 100 | > 100 | > 100 | > 100 | > 100 | > 100 | > 100 | > 100 | > 100 |  |  |  |  |  |  |  |  |  | 
COc1ccc(C(=O)c2ccc(OC)c(OC)c2OC)cc1 | 37.2 | > 100 | > 100 | > 100 | > 100 | > 100 | > 100 | 2.86 | 6.03 | > 100 | 1.68 | 9.85 | 0.725 | 0.351 | 0.596 | 4.51 | 3.73 | 0.773 | 1.81 | 4.87
CCCCCCCCCCCCCCCCCC1=NCCN1CS(=O)(=O)O | 40.5 | 35.3 | 29 | > 100 | 23.5 | 34.7 | 33.9 | 33.7 | 54 | 40.9 | 18.8 | 17.7 | 9.54 | 3.93 | 4.49 | 19.2 | 17.1 | 15 | 24.5 | 17.9
CCNCC(=O)O[C@]1(CC)C(=O)OCc2c1cc1n(c2=O)Cc2cc3ccccc3nc2-1 | 1.27 | 1.05 | 6.61 | > 100 | > 100 | > 55.5 | 12.2 | 15.9 | 7.97 | > 100 |  |  |  |  |  |  |  |  |  | 
CC(C)[C@@]12C[C@@H](OC(=O)[C@H]3CO3)[C@@](C)(O1)[C@@H]1CC[C@@H](C)[C@H]1[C@@H]2OC(=O)/C=C/c1ccccc1 | 28.5 | 22 | > 80.6 | > 100 | > 100 | 57.2 | 50.6 | 30.8 | 32.7 | 74.6 | 14.9 | 3.55 | 22.9 | 18.5 | 11.1 | 18.7 | 19.5 | 12.3 | 14.3 | 21.6
O=C1OCC(c2cccs2)=C1Cl | > 100 | > 100 | > 100 | > 100 | > 100 | > 100 | > 100 | > 100 | > 100 | > 100 | 86.3 | > 100 | 52.9 | > 100 | 74.2 | 76.8 | 41 | 44.8 | 42.4 | > 100
CC(=O)c1ccc(NC(=O)CSc2nnc(-c3cc(-c4ccc(C)cc4)nc4ccccc34)o2)cc1 | > 100 | 3.51 | 3.92 | > 100 | > 100 | > 100 | > 100 | > 100 | 9.06 | 19.3 | 3.42 | 1.61 | 1.97 | 3.15 | 4.95 | > 100 | > 100 | 3.22 | 2.39 | 3.87
CCC[CH2][Sn]([CH2]CCC)([O]C(=O)c1cc(F)cc(F)c1)[O]C(=O)c1cc(F)cc(F)c1 | 2.61 | 2.49 | 1.85 | 0.965 | 2.41 | 2.37 | 2.28 | 2.65 | 0.269 | 2.83 | 1.34 | 1.25 | 0.615 | 0.228 | 1.17 | 1.13 | 1.09 | 1.36 | 0.137 | 1.5
O=S(O)CCCCCSSCCCCSSCCCCCS(=O)O | > 100 | > 100 | > 100 | > 100 | > 100 | > 100 | > 100 | > 100 | > 100 | > 100 |  |  |  |  |  |  |  |  |  | 
Cc1nc2sccn2c(=O)c1CCN1CCC(=C(c2ccc(F)cc2)c2ccc(F)cc2)CC1 | 15 | 27.8 | 23.7 | 26.2 | 17.5 | 26.9 | 21.9 | 27.2 | 25.7 | 30.3 | 4.01 | 12 | 10.5 | 5.18 | 4.53 | 13.4 | 9.2 | 12.8 | 11.1 | 16
CCOC(=O)c1sc2nc3sc(N=Nc4ccc(Cl)cc4)c(O)n3c(=S)c2c1C | 35.8 | > 100 | > 100 | > 100 | 49.3 | > 100 | 60.6 | > 100 | > 100 | > 100 | 17.1 | 32.4 | 29.1 | > 100 | 18.3 | 28.4 | 23.4 | 36.7 | 38.8 | 27.4
COc1cc(NCCCCN=C(N)NC(N)=NC(C)C)c2ncccc2c1 | 10.7 | > 100 | 21.1 | 25.8 | > 100 | 24.7 | 10.5 | 0.897 | 3.93 | 26.3 | 2.84 | 31 | 5.65 | 3.65 | > 100 | 12.1 | 3.26 | 0.311 | 0.929 | 9.86
CCn1cc(/C=C/C(C)c2cn(CC)c(=O)[nH]c2=O)c(=O)[nH]c1=O (configuration not stated) | > 100 | > 100 | > 100 | > 100 | > 100 | > 100 | > 100 | > 100 | > 100 | > 100 |  |  |  |  |  |  |  |  |  | 
CN(C)c1ccc(C(=C2C=CC(=[N+](C)C)C=C2)c2ccc(N(C)C)cc2)cc1 (tested in a mixture with another compound) | 0.289 | 1.02 | 1.34 | 2.86 | 1.41 | 1.37 | 1.3 | 0.949 | 1.06 | 1.56 | 0.133 | 0.104 |  | 0.047 | 0.294 | 0.141 | 0.211 | 0.133 |  | 
COc1cc(/C=C/c2cc(/C=C/c3ccc(O)c(OC)c3)n(-c3c(C)cccc3C)c(=O)n2)ccc1O | 1.9 | 3.41 | 4.08 | > 100 | 4.61 | 5.1 | 6.54 | 6.6 | 1.04 | 9.19 | 0.559 | 0.958 | 0.635 | 0.374 | 0.442 | 1.16 | 1.62 | 1.37 | 0.264 | 2.38
